Assay results taken from patent publication US20060148714A1, “Therapeutic peptide-based constructs” (priority 1999, published 2006).
Converted amounts (≈) assume the structure as drawn. Where a SMILES comes first, the peptide text is derived from it. [ ]: non-standard residue; d: D form. d1Nal = N[C@H](Cc1cccc2ccccc12)C(=O)O

How the values were obtained:
[1] = tested on: E. coli (J5 and 0111 B4), Staphylococcus aureus and Candida albicans; assay: Broth and/or radial diffusion antimicrobial assays; format: cell-based
Source text: Assays useful for testing a variety of biological activities of BPI protein products, including BPI-derived peptides, are described in co-owned U.S. Pat. Nos. 5,733,872; 5,763,567; 5,652,332; and 5,856,438 and corresponding PCT Publication Nos. WO 94/20532 (PCT/US94/02465) and WO 95/19372 (PCT/US94/10427) and U.S. Pat. No. 5,858,974 and corresponding PCT Publications Nos. WO 96/08509 (PCT/US95/09262) and WO 97/04008 (PCT/US96/03845), incorporated herein by reference. These activities include antimicrobial (including antibacterial and antifungal), LPS binding, LPS neutralization and additional assays of heparin binding as well as heparin neutralization.

[2] = tested on: bFGF-induced angiogenesis; assay: In vivo Matrigel angiogenesis assay (hemoglobin content of excised gel); conditions: 10 μg peptide construct per gel; hemoglobin of gel excised ten days after s.c. injection; C57BL/6J mice
Procedure: For these experiments, peptide-based constructs according to the invention were assayed for their ability to inhibit heparin-induced angiogenesis in vivo in mice. Basement membrane matrix (Matrigel®, Becton Dickinson Labware, Mountain View, Calif.) was thawed and maintained at 4° C. and angiogenic factors were added to the gel in the liquid state generally as described in Passaniti et al., 1992, Lab. Invest. 67: 519-528. Heparin sodium (Sigma, St. Louis, Mo.) was dissolved in sterile PBS to various concentrations ranging from 1,250-10,000 U/mL, and used in these experiments at 8,000 U/mL. Human recombinant basic fibroblast growth factor (bFGF; Sigma) was reconstituted into 1. % BSA in PBS to 25 μg/mL. A volume of 2.5 μL dissolved heparin solution and 4.0 μL recombinant bFGF were added to 0.5 mL Matrigel® mixture per mouse injection. Peptide-based constructs were added to this Matrigel® mixture at varying concentrations ranging from 0.5 to 50 μg/mL (final concentration) in 10 μL/0.5 mL Matrigel® aliquot per experimental animal. Ten μL sterile PBS was substituted for peptide-based constructs in Matrigel® aliquots injected into control animals.
Female C57BL/6J mice (Jackson Laboratory, Bar Barbor, Me.) at 6-8 weeks of age (maintained under NIH guidelines) were injected subcutaneously down the dorsal midline with 0.5 mL aliquots of Matrigel® prepared as described above. Ten days after injection, the Matrigel® gels were excised and placed in Drabkin's reagent (Sigma). Total protein and hemoglobin content can be determined for the gels stored in Drabkin's reagent after mechanical homogenization of the gels. Hemoglobin concentration was measured using Sigma Procedure #525 and reagents supplied by Sigma (St. Louis, Mo.) to be used with this procedure. If desired, total protein levels are determined using a microplate assay that is commercially embodied in a kit (DC Protein Assay, Bio-Rad, Richmond, Calif.).
Gels to be used for histological staining are formalin-fixed immediately after excision from the animals rather than being placed in Drabkin's reagent. Formalin-fixed gels are embedded in Tissue-Tek O.C.T. compound (Miles, Inc., Elkhart, Ind.) for frozen sectioning. Slides of frozen sections are stained with hematoxylin and eosin (as described by Humason, 1979, Animal Tissue Techniques, 4th Ed. W.H. Feeman & Co., San Francisco, Calif., Ch. 9, pp. 111-131). The effect of peptides are detected by microscopic examination of frozen stained sections for inhibition of angiogenesis relative to Matrigel® gel slices prepared without added peptides. The extent of angiogenesis inhibition is quantitated using the normalized amounts of hemoglobin found in BPI peptide-containing gel slices.
Data are presented as the means of triplicate determinations of hemoglobin concentrations from the excised gel (ISEM) with ten mice per group.

[3] = tested on: Factor Xa neutralization by ATIII/heparin complexes; assay: Chromostrate heparin anti-Factor Xa assay (heparin neutralization); format: biochemical; conditions: absorbance at 405 nm
Procedure: A Chromostrate™ assay was used to determine the effect of peptide-based constructs, including derivatized constructs, and the effect protamine sulfate (as a positive control) on Factor Xa neutralization by ATIII/heparin complexes. The assay was conducted using a Chromostrate™ heparin anti-Factor Xa assay kit (Organon Teknika Corp., Durham, N.C.). Heparin concentration was varied so that a heparin standard curve was generated. The assay measured the potentiating effect of heparin on anti-Xa activity in vitro. Solution containing heparin is incubated in the presence of ATIII with an excess of Factor Xa, forming an ATIII-Heparin-Xa complex. The remaining Xa catalyzes the release of p-nitroaniline (pNA) from the chromogenic substrate. The release of p-nitroaniline is measured at 405 nm. The absorbance obtained in inversely porportional to the concentration of heparin in the sample.
Reagents for the assay are prepared as follows. Heparin, peptide-based constructs and protamine sulfate stocks are made in saline. Stock solutions are approximately 1 mg/mL=1 μg/μL. Factor Xa reagent and substrate reagent are reconstituted with 2.0 mL purified water. Antithrombin III (ATIII) reagent is reconstituted with 1.0 mL purified water. The assay is performed in 96 well microtiter plates. Assay components are added to the microtiter wells as follows: 12.5 μl of heparin (from 0 to 10 U/mL), 25 μl of construct or protamine sulfate, 12.5 μL of ATIII (0.5 PEU/mL), 25 μL of bovine Factor Xa (14 nKat/mL), 25 μL substrate (3 μmoles/mL). The reaction is allowed to proceed for 20 minutes and then 25 μL of 0.1 M acetic acid is added. The color reaction is quantitated on a microplate reader at 405 nm. Constructs that neutralize heparin show an increase in the absorbance at 405 nm. Protamine is used as a positive control and its activity is designated as 100%. The percent (%) heparin neutralization for each peptide construct is calculated relative to the neutralization by protamine (100%), and shown in Table IV.

[4] = tested on: human umbilical vein endothelial cells (HUVEC); format: cell-based; conditions: for IC50: 72 h
Procedure: Briefly, human umbilical vein endothelial cells (HUVEC) were cultured in EGM-2 medium (Clonetics Corp., San Diego, Calif.), harvested and plated onto a 96-well culture plate. After 24 hours of quiescence, the cells were co-cultured with various peptide-based constricts in the presence of growth factors for 72 hours to test their activity. Cell proliferation was quantitated by tritiated thymidine incorporation into DNA and was expressed in counts per minute (cpm).
Details of the experimental procedures were as follows: HUVEC cells were cultured in EGM-2 media from Clonetics Corp., a subsidiary of BioWhittaker, Inc., San Diego, Calif. [EGM-2 is Endothelial Cell Basal Medium-2 (EMB-2) supplemented with growth factors (hFGF-B, VEGF, IGF-1, hEGF) ascorbic acid, heparin, GA-1000 and 2% FBS), in T75 flasks until confluent (˜4-7 days). Cells were harvested by trypsinizing the cells using 0.025% trypsin/EDTA for 5 minutes. To stop the reaction, 2-5% FBS was added. The cells were centrifuged and washed 3 times using Hank's Balanced Salt Solution (HBSS) or Dulbecco's Phosphate Buffered Saline D-PBS. The pellet was then resuspended in EBM-2 supplemented with 0.1% FBS and GA-1000 was used. The cells were counted and a cell suspension was prepared at 2×10^5/mL in EBM-2 with 0.1% FBS; cells were dispensed into a 96-well flat bottomed culture plate at 0.1 mL/well (total: ˜20,000 cells/well in 0.1% FBS-EBM-2). Incubation continued at 37° C. in 5% CO2 for 20-24 hours. The next day peptide-based constructs were prepared for testing in a 96 well plate. The supernatant was aspirated from the cell-well, replaced with EBM-2 or the testing reagent at 20 μL/well. Then, 180 μL/well of 1.12% FBS-GFS were added to make a final concentration of 1% FBS-GFS in EBM-2. This aspiration and addition was done well-by-well. ^3H-thymidine (100 μCi/mL) was added at 10 μL/well (1 μCi/well, final). Incubation continued at 37° C., 5% CO2 for 72 hours. To harvest the plate, the supernatant was aspirated off from the cell-well and then 75 μL-100 μL/well of 0.025% trypsin-EDTA was added. After incubation for 8-10 minutes at room temperature in the hood, the cells were checked and 100 μL/well of 2-5% FBS-PBS was added to stop the reaction. The plate was then harvested, dried and counted using an Inotech cell harvester (Inotech Biosystems, INB-384, Sample Processing and Filter Counting System, Lansing, Mich.).

[5] = tested on: LPS; assay: RAW cell assay of LPS neutralization; format: cell-based

Row | Compound | antimicrobial activity [1] | % Inhibition [2] | Assay A: percent heparin neutralization relative to protamine (100%) [3] | Assay B: percent heparin neutralization relative to protamine (100%) [3] | IC50 [4] | IC50 values, additional assays ([4]; HUVEC proliferation, purified constructs, said to be comparable to Table II (μg/mL)) | LPS neutralization activity [5]
1 | CC(C)C[C@@H](NC(=O)[C@H](N)CCCCN)C(=O)N[C@H](Cc1ccccc1)C(=O)N[C@H](CCCNC(=N)N)C(=O)N[C@H](Cc1cccc2ccccc12)C(=O)N[C@H](CCC(N)=O)C(=O)N[C@H](C)C(=O)N[C@H](CCCCN)C(=O)N[C@H](Cc1cccc2ccccc12)C(=O)N[C@H](CCCCN)C(=O)NCC(N)=O [XMP.627, k-l-f-r-(naph-a)-q-a-k-(naph-a)-k-g] (H-[dK][dL][dF][dR][d1Nal][dQ][dA][dK][d1Nal][dK]G-NH2; N-terminus assumed) | highest antimicrobial activities | 77.6% | 98% | 62% | 5.8 ± 0.7 µg/mL (≈ 3.95 µM) |  | 
2 | CC[C@@H](C)[C@@H](NC(=O)[C@@H](CO)NC(=O)CNC(=O)[C@@H](CCCCN)NC(=O)[C@@H](Cc1cccc2ccccc12)NC(=O)[C@@H](CCCCN)NC(=O)[C@@H](C)NC(=O)[C@@H](CCC(N)=O)NC(=O)[C@@H](Cc1cccc2ccccc12)NC(=O)[C@@H](CCCNC(=N)N)NC(=O)[C@@H](Cc1ccccc1)NC(=O)[C@@H](CC(C)C)NC(=O)[C@H](N)CCCCN)C(=O)N[C@H](CCCCN)C(N)=O [XMP.624, k-l-f-r-(naph-a)-q-a-k-(naph-a)-k-g-s-i-k] (H-[dK][dL][dF][dR][d1Nal][dQ][dA][dK][d1Nal][dK]G[dS][dI][dK]-NH2) |  | 51.9% | 131% | 94% |  | 4.9 ±0.5 | showed activity
3 | CC[C@@H](C)[C@@H](NC(=O)[C@@H](CCCCN)NC(=O)[C@H](NC(=O)[C@@H](CO)NC(=O)CNC(=O)[C@@H](CCCCN)NC(=O)[C@@H](Cc1cccc2ccccc12)NC(=O)[C@@H](CCCCN)NC(=O)[C@@H](C)NC(=O)[C@@H](CCC(N)=O)NC(=O)[C@@H](Cc1cccc2ccccc12)NC(=O)[C@@H](CCCNC(=N)N)NC(=O)[C@@H](Cc1ccccc1)NC(=O)[C@@H](CC(C)C)NC(=O)[C@H](N)CCCCN)[C@H](C)CC)C(N)=O [XMP.394, k-l-f-r-(naph-a)-q-a-k-(naph-a)-k-g-s-i-k-i] (H-[dK][dL][dF][dR][d1Nal][dQ][dA][dK][d1Nal][dK]G[dS][dI][dK][dI]-NH2; N-terminus assumed) |  | 54.6% | 143% | 133% | 4.3 ± 0.5 µg/mL (≈ 2.25 µM) |  | 
4 | CC(C)C[C@@H](NC(=O)[C@H](N)CCCCN)C(=O)N[C@H](Cc1ccccc1)C(=O)N[C@H](CCCNC(=N)N)C(=O)N[C@H](Cc1cccc2ccccc12)C(=O)N[C@H](CCC(N)=O)C(=O)N[C@H](C)C(=O)N[C@H](CCCCN)C(=O)N[C@H](Cc1cccc2ccccc12)C(N)=O [XMP.629, k-l-f-r-(naph-a)-q-a-k-(naph-a)] (H-[dK][dL][dF][dR][d1Nal][dQ][dA][dK][d1Nal]-NH2; N-terminus assumed) | highest antimicrobial activities | 30.8% | 69% | 49% |  |  | showed activity
